Reference: article PMC4936186 (Journal of medicinal chemistry, 2015)
Starred links: 1 amine or outer side, 2 acyl side, 3 side chain; linkers in the order of their positions; H or OH if unused. Positions of bridges follow the written chain, without caps; N, C: chain ends. Non-standard residues stand in square brackets, D forms with d. Residues, ends and D or L forms follow the SMILES beside them. X1 = O=C([C@@H]1C[C@H](n2cc(C3=CC=C[CH]3[Fe][CH]3C=CC=C3)nn2)CN1[*:1])[*:2]

Columns and labels:
[1] = tested on: HIV-1 gp120; details: for Activity in SPR competition binding to gp120 (in words): dual receptor site (sCD4 and 17b) inhibition
[2] = tested on: trypsin; details: 37 °C, 5-hour incubation
[3] = tested on: chymotrypsin

Compound	Activity in SPR competition binding to gp120 (in words) [1]	Enhancement of activity of macrocycle 7 vs 2 ([1]; SPR, shorter green linker (Asp instead of Glu))	Stability to trypsin (in words) [2]	Stability to chymotrypsin (in words) ([3]; 37 °C, 5-hour incubation)	Stability to chymotrypsin (in words), 30 min ([3]; 37 °C, 30 minute incubation)	Intactness after chymotrypsin digestion (in words), 40 h ([3]; 40 h incubation, HPLC and ESI-MS)
CC[C@H](C)[C@H](N)C(=O)N[C@H]1CCC(=O)NCCCC[C@@H](C(N)=O)NC(=O)[C@H](Cc2c[nH]c3ccccc23)NC(=O)[C@@H]2C[C@H](n3cc(C4=CC=C[CH]4[Fe][CH]4C=CC=C4)nn3)CN2C(=O)[C@H]([C@@H](C)CC)NC(=O)[C@H](CC(N)=O)NC1=O (stereo partly shown) [Compound 4] (H-IENI[X1]WK-NH2; lactam 2-7; N-terminus and C-terminus assumed)	enhanced dual receptor site antagonizing activities compared to their non-ferrocene analogues					
CC[C@H](C)[C@@H]1NC(=O)[C@H](CC(N)=O)NC(=O)[C@@H](N)CC(=O)NCCCC[C@@H](C(N)=O)NC(=O)[C@H](Cc2c[nH]c3ccccc23)NC(=O)[C@@H]2C[C@H](n3cc(CCc4ccccc4)nn3)CN2C1=O [Compound 7]		almost two-fold enhanced activity	completely resistant	completely resistant	almost unchanged	remained intact
CC[C@H](C)[C@@H]1NC(=O)[C@H](CC(N)=O)NC(=O)[C@@H](N)CC(=O)NCCCC[C@@H](C(N)=O)NC(=O)[C@H](Cc2c[nH]c3ccccc23)NC(=O)[C@@H]2C[C@H](n3cc(C4=CC=C[CH]4[Fe][CH]4C=CC=C4)nn3)CN2C1=O (stereo partly shown) [Compound 9] (H-DNI[X1]WK-NH2; lactam 1-6; C-terminus assumed)	enhanced dual receptor site antagonizing activities compared to their non-ferrocene analogues					
